One compound from patent US10913933B2, “Bioengineered liver constructs and methods relating thereto” (Wake Forest University Health Sciences, priority 2013, dated 2021) can be followed below.

The series deals with bioengineered liver organoids. As to conditions: human, 48 h. The procedure: For hepatocyte functional analysis, culture medium was collected after the three week incubation. The media was stored at −80° C. until it was used for analysis. For analyzing albumin synthesis, albumin ELISA assay (Bethyl Laboratories Inc.) was carried out on each samples in triplicates. The albumin concentrations were normalized per mg of DNA. The media was also analyzed in the same fashion for urea secretion using a Quantichrome™ Urea Assay Kit (BioAssay Systems, Inc.). […] After 48 hours, media samples were collected and analyzed by mass spectrometry (FIGS. 3C and 3D), and compared with standards of individual metabolites (FIGS. 3A and 3B).
In a second experiment, the liver organoids were prepared as described above in Example 1, Section A using LPC seeding and maintenance media. Alternatively, the organoids can be prepared using minimal LPC medium or hFLP medium instead. After seeding with hFLPCs, the discs were cultured for 3 weeks, with harvesting of cells at 1 week and 3 weeks for immunohistochemical and molecular analysis. Assays assessing albumin and urea synthesis and IHC analyses were performed as described above. Gene expression analyses were performed by RT-PCR after harvesting the organoids. Drug metabolism activity in the organoids was assessed after 1 week and 3 weeks of culturing. […] After 3, 6, 12, and 24 hours, media samples were collected and analyzed by mass spectrometry.

On to `CCOc1ccc2ccc(=O)oc2c1` [7-ethoxycoumarin], for which the “Phase-1 metabolites found in media” value is reported as 7-hydroxycoumarin.
